Data as given in US20230348426A1, “OXOPYRROLIDINE FPR2 AGONISTS” (Bristol-Myers Squibb Company, priority 2020, published 2023).

Key:
human FPR2 = human FPR2 (Homo sapiens (Human), UniProt P25090); experiment: FPR2 cyclic adenosine monophosphate (cAMP) assay; format: cell-based; details: CHO cells overexpressing human FPR2; forskolin 5 µM; inhibition of cAMP production; read-out: hFPR2 cAMP2 EC50
Summary of the method: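 Inhibition of forskolin-driven (5 µM) cAMP, with 200 µM IBMX, measured in human FPR2-expressing CHO cells, 2,000 per well, 30 min at room temperature; compounds tested 0.020 nM to 100 µM in 1% DMSO. HTRF 665/590 ratio converted to cAMP via calibration curve, then 4-parameter fit.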

human FPR1 = human FPR1 (Homo sapiens (Human), UniProt P21462); experiment: FPR1 cyclic adenosine monophosphate (cAMP) assay; format: cell-based; details: CHO cells overexpressing human FPR1; forskolin 10 µM; inhibition of cAMP production; read-out: hFPR1 cAMP EC50
Summary of the method: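 Human FPR1-expressing CHO cells were used at 4,000 per well, with compound at 0.020 nM–100 µM in 1% DMSO. Potency came from a 4-parameter logistic fit.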

Chain of human FPR1 (P21462 whole entry): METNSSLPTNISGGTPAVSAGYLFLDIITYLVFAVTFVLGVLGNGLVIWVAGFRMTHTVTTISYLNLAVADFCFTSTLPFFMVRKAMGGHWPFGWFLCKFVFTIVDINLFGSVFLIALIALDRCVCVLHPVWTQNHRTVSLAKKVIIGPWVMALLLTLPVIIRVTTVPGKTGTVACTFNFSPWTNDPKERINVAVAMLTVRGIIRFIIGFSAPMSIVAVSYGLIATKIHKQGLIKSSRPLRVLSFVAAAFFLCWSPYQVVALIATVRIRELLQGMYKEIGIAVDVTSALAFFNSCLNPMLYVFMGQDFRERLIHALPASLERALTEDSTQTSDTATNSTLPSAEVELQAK
Chain of human FPR2 (P25090 whole entry): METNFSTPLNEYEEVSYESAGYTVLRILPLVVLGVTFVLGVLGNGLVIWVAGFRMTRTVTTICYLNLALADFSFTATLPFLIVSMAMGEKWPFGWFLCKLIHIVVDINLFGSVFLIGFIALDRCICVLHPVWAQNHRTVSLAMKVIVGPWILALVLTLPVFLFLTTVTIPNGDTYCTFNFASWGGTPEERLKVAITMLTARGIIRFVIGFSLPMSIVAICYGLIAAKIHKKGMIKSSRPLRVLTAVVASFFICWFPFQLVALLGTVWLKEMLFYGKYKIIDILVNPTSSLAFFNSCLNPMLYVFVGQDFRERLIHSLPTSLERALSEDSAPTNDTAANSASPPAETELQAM

Row | SMILES | EC50 (human FPR2) | EC50 (human FPR1)
1 | COc1cc(F)c([C@@H]2CN(CC3CC3)C(=O)[C@H]2NC(=O)c2ccc(OC(F)(F)F)cc2)c(F)c1 [Example 20] | 32 nM | 560 nM
2 | COc1cc(F)c([C@@H]2CN(c3cccn(CC(C)(C)O)c3=O)C(=O)[C@H]2NC(=O)c2ccc(OC(F)F)cc2)c(F)c1 [Example 308] | 9.9 nM | 180 nM
3 | COc1cc(F)c([C@H]2[C@H](NC(=O)c3ccc(Cl)cc3)C(=O)N(c3nccn(CC(F)F)c3=O)[C@H]2C)c(F)c1 [Example 560] | 0.8 nM | 120 nM
4 | COc1cc(F)c([C@@H]2CN(c3nc(N4C[C@@H]5C[C@H]4CN5C)ccc3OC)C(=O)[C@H]2NC(=O)c2ccc(Cl)cc2)c(F)c1 [Example 259] | 7.4 nM | 580 nM
5 | COc1cc(F)c([C@H]2[C@H](NC(=O)c3ccc(OC(F)(F)F)cc3)C(=O)N(c3cccn(CCO)c3=O)[C@H]2C)c(F)c1 [Example 301] | 9.3 nM | 150 nM
6 | COc1cc(F)c([C@@H]2CN(c3ncn(CC(C)C)n3)C(=O)[C@H]2NC(=O)c2ccc(Cl)cc2)c(F)c1 [Example 532] | 2.3 nM | 630 nM
7 | COc1cc(F)c([C@@H]2CN(c3cccn(CCN(C)C)c3=O)C(=O)[C@H]2NC(=O)c2ccc(OC(F)F)cc2)c(F)c1 [Example 97] | 2.7 nM | 350 nM
8 | COCCn1cccc(N2C(=O)[C@@H](NC(=O)c3ccc(OC(F)(F)F)cc3)[C@H](c3c(F)cc(OC)cc3F)[C@H]2C)c1=O [Example 200] | 5.2 nM | 290 nM
9 | COc1cc(F)c([C@@H]2CN(c3cccn4cc(C)nc34)C(=O)[C@H]2NC(=O)c2ccc(Cl)cc2)c(F)c1 [Example 493] | 2.2 nM | 270 nM
10 | CCn1cccc(N2C(=O)[C@@H](NC(=O)c3ccc(OC(F)F)cc3)[C@H](c3c(F)cc(OC)cc3F)[C@H]2C)c1=O [Example 255] | 7 nM | 52 nM
11 | COc1cc(F)c([C@@H]2CN(c3cccn(CC(C)(CO)CO)c3=O)C(=O)[C@H]2NC(=O)c2ccc(OC(F)F)cc2)c(F)c1 [Example 179] | 4.7 nM | 92 nM
12 | COc1cc(F)c([C@@H]2CN(c3c(C)ncn(CC4(C)COC4)c3=O)C(=O)[C@H]2NC(=O)c2ccc(Cl)cc2)c(F)c1 [Example 522] | 5.4 nM | > 5000 nM
13 | COCCn1ccc(C)c(N2C[C@@H](c3ccc(OC)cc3)[C@H](NC(=O)c3ccc(Cl)cc3)C2=O)c1=O [Example 365] | 2.6 nM | 1 nM
14 | COc1cc(F)c([C@@H]2CN(c3ncccc3C(F)(F)F)C(=O)[C@H]2NC(=O)c2ccc(OC(F)F)cc2)c(F)c1 [Example 7] | 10 nM | 1300 nM
15 | COc1cc(F)c([C@@H]2CN(c3nccc(N4C[C@@H](C)N(C)[C@@H](C)C4)c3C(F)(F)F)C(=O)[C@H]2NC(=O)c2ccc(OC(F)F)cc2)c(F)c1 [Example 109] | 2.9 nM | 500 nM
16 | COc1cc(F)c([C@@H]2CN(c3nc(N4C(=O)C5CCCC54)ccc3F)C(=O)[C@H]2NC(=O)c2ccc(OC(F)F)cc2)c(F)c1 (some centres unmarked) [Example 119] | 3.1 nM | 67 nM
17 | COc1cc(F)c([C@@H]2CN(c3c(C)ccn(C(F)F)c3=O)C(=O)[C@H]2NC(=O)c2ccc(OC(F)F)cc2)c(F)c1 [Example 381] | 4 nM | 10 nM
18 | COc1cc(F)c([C@@H]2CN(c3ccn(CC(F)F)n3)C(=O)[C@H]2NC(=O)c2ccc(OC(F)F)cc2)c(F)c1 [Example 661] | 1.2 nM | 110 nM
19 | COc1cc(CO)nc(N2C[C@@H](c3c(F)cc(OC)cc3F)[C@H](NC(=O)c3ccc(OC(F)F)cc3)C2=O)c1 [Example 586] | 9.8 nM | 1300 nM
20 | COCC(C(=O)N(C)C)n1ccc(C)c(N2C[C@@H](c3c(F)cc(OC)cc3F)[C@H](NC(=O)c3ccc(OC(F)(F)F)cc3)C2=O)c1=O (some centres unmarked) [Example 248] | 6.9 nM | 0.7 nM
21 | COCCn1cccc(N2C[C@@H](c3ccc(OC)cc3)[C@H](NC(=O)c3ccc(OC(F)(F)F)cc3)C2=O)c1=O [Example 60] | 1.6 nM | 2.6 nM
22 | COc1cc(F)c([C@@H]2CN(c3nc(C)ccc3F)C(=O)[C@H]2NC(=O)c2ccc(Cl)cc2)c(F)c1 [Example 111] | 3 nM | 1100 nM
23 | COCC(C(=O)N(C)C)n1cccc(N2C[C@@H](c3c(F)cc(OC)cc3F)[C@H](NC(=O)c3ccc(OC(F)(F)F)cc3)C2=O)c1=O (some centres unmarked) [Example 283] | 8.4 nM | 19 nM
24 | COc1cc(F)c([C@@H]2CN(c3nccc(N4CCOCC4)c3C(F)(F)F)C(=O)[C@H]2NC(=O)c2ccc(Cl)cc2)c(F)c1 [Example 420] | 7.3 nM | 51 nM
25 | Cc1ccn(CC2CC2)c(=O)c1N1C[C@@H](c2ccc(Cl)cc2)[C@H](NC(=O)c2ccc(OC(F)F)cc2)C1=O [Example 442] | 9.6 nM | 1 nM

Row | SMILES | EC50 (human FPR2) | EC50 (human FPR1)
26 | COc1cc(F)c([C@@H]2CN(c3c(C)ccn(CC4CNC(=O)O4)c3=O)C(=O)[C@H]2NC(=O)c2ccc(OC(F)F)cc2)c(F)c1 (some centres unmarked) [Example 665] | < 10 nM | 7.4 nM
27 | COc1cc(F)c([C@@H]2CN(c3nc(C4CCOCC4)ccc3F)C(=O)[C@H]2NC(=O)c2ccc(OC(F)F)cc2)c(F)c1 [Example 316] | 10 nM | 95 nM
28 | COCCn1nccc(N2C[C@@H](c3c(F)cc(OC)cc3F)[C@H](NC(=O)c3ccc(OC(F)F)cc3)C2=O)c1=O [Example 398] | 7.2 nM | 11 nM
29 | COc1cc(F)c([C@H]2[C@H](NC(=O)c3ccc(OC(F)F)cc3)C(=O)N(c3cncn(CC(F)F)c3=O)[C@H]2C)c(F)c1 [Example 555] | 31 nM | 530 nM
30 | COCCn1cccc(N2C[C@@H](c3ccc(OC)cc3)[C@H](NC(=O)c3ccc(OC(F)F)cc3)C2=O)c1=O [Example 276] | 8 nM | 13 nM
31 | COc1ccnc(N2C[C@@H](c3c(F)cc(OC)cc3F)[C@H](NC(=O)c3ccc(OC(F)F)cc3)C2=O)c1 [Example 32] | 18 nM | 960 nM
32 | COCC(CO)n1cccc(N2C(=O)[C@@H](NC(=O)c3ccc(OC(F)(F)F)cc3)[C@H](c3c(F)cc(OC)cc3F)[C@@H]2C)c1=O (some centres unmarked) [Example 293] | 8.7 nM | 44 nM
33 | COc1cc(F)c([C@@H]2CN(c3cccn(CC(O)CO)c3=O)C(=O)[C@H]2NC(=O)c2ccc(OC(F)(F)F)cc2)c(F)c1 (some centres unmarked) [Example 669] | 11 nM | 270 nM
34 | COCCN1CCC(c2cc(OC)cc(N3C(=O)[C@@H](NC(=O)c4ccc(OC(F)F)cc4)[C@H](c4c(F)cc(OC)cc4F)[C@@H]3C)n2)CC1 [Example 491] | 1.8 nM | > 5000 nM
35 | COc1cc(F)c([C@@H]2CN(c3cccc(=O)n3C)C(=O)[C@H]2NC(=O)c2ccc(OC(F)(F)F)cc2)c(F)c1 [Example 11] | 31 nM | 86 nM
36 | COc1cc(F)c([C@@H]2CN(c3ccnc(N4C[C@@H](C)N(C)[C@@H](C)C4)c3C(F)(F)F)C(=O)[C@H]2NC(=O)c2ccc(OC(F)F)cc2)c(F)c1 [Example 152] | 3.9 nM | 460 nM
37 | COc1cc(F)c([C@@H]2CN(c3nc(N4CC(C)OCC4=O)ccc3F)C(=O)[C@H]2NC(=O)c2ccc(OC(F)F)cc2)c(F)c1 (some centres unmarked) [Example 216] | 5.7 nM | 270 nM
38 | O=C(N[C@@H]1C(=O)N(c2cccn(CCO)c2=O)C[C@H]1c1ccc(Cl)cc1)c1ccc(OC(F)(F)F)cc1 [Example 102] | 2.8 nM | 4.7 nM
39 | COc1cc(F)c([C@H]2[C@H](NC(=O)c3ccc(OC(F)F)cc3)C(=O)N(c3cccc(P(C)(C)=O)n3)[C@H]2C)c(F)c1 [Example 505] | 100 nM | 3400 nM
40 | COc1cc(F)c([C@@H]2CN(c3c(C)ccn(C)c3=O)C(=O)[C@H]2NC(=O)c2ccc(OC(F)(F)F)cc2)c(F)c1 [Example 291] | 8.7 nM | 6.6 nM
41 | COc1cc(F)c([C@@H]2CN(c3ccc(=O)n(C)c3)C(=O)[C@H]2NC(=O)c2ccc(OC(F)(F)F)cc2)c(F)c1 [Example 26] | 35 nM | 27 nM
42 | COc1cc(F)c([C@@H]2CN(c3cc(C)cc(N4C[C@@H]5C[C@H]4CN5C)n3)C(=O)[C@H]2NC(=O)c2ccc(OC(F)(F)F)cc2)c(F)c1 [Example 571] | 6 nM | 580 nM
43 | COCC(C(=O)N(C)C)n1cccc(N2C[C@@H](c3c(F)cc(OC)cc3F)[C@H](NC(=O)c3ccc(OC(F)F)cc3)C2=O)c1=O (some centres unmarked) [Example 92] | 2.6 nM | 3.6 nM
44 | COc1cc(F)c([C@@H]2CN(c3nc(N4C(=O)CC[C@H]4CO)ccc3F)C(=O)[C@H]2NC(=O)c2ccc(OC(F)F)cc2)c(F)c1 [Example 266] | 7.6 nM | 410 nM
45 | COc1cc(F)c([C@@H]2CN(c3cncn(C4CCNC4)c3=O)C(=O)[C@H]2NC(=O)c2ccc(Cl)cc2)c(F)c1 (some centres unmarked) [Example 714] | 6.4 nM | 3600 nM
46 | COc1cc(F)c([C@@H]2CN(c3nccc(N4CCC(C)(O)C4)c3C(F)(F)F)C(=O)[C@H]2NC(=O)c2ccc(Cl)cc2)c(F)c1 (some centres unmarked) [Example 480] | 5.7 nM | 300 nM
47 | COCCn1cccc(N2C[C@@H](c3c(F)cc(OC)cc3F)[C@H](NC(=O)c3ccc(OC(C)C)cc3)C2=O)c1=O [Example 347] | 110 nM | 840 nM
48 | COc1cc(F)c([C@@H]2CN(c3cc(NC(C)=O)cn(C)c3=O)C(=O)[C@H]2NC(=O)c2ccc(OC(F)F)cc2)c(F)c1 [Example 323] | 11 nM | 750 nM
49 | COc1cc(F)c([C@@H]2CN(c3cccnc3OCCO)C(=O)[C@H]2NC(=O)c2ccc(OC(F)(F)F)cc2)c(F)c1 [Example 396] | 9.5 nM | 39 nM
